Molecules are shown by their SMILES.

Data set [1] relates to A549 NSCLC Xenograft. Kind of data set: A549 NSCLC xenograft model, efficacy (tumor growth inhibition). Format: in vivo, mice. Particulars: single agent. The source says:
For implantation in mice, A549 cells were dislodged with trypsin-EDTA, washed with 1×D-PBS, and resuspended in serum-free media. […] Tumors were allowed to establish until they were palpable and of an appropriate tumor volume (based on previous tumorigenicity studies) before initiation of treatment. Animals were randomly assigned to groups according to initial tumor volume, and the day of tumor cell inoculation was considered to be study day 0. […] The solution was then evaporated and lyophilized. […] Efficacy data was graphically represented as the mean tumor volume ±standard error of the mean (SEM). Tumor volumes of treated groups were presented as percentages of tumor volumes of the control groups (%T/C), using the formula: 100×((T-T0)/(C-C0)), where 'T' represented mean tumor volume of a treated group on a specific day during the experiment, 'T0' represented mean tumor volume of the same treated group on the first day of treatment; 'C' represented mean tumor volume of a control group on a specific day during the experiment, and C0' represented mean tumor volume of the same […] 'D' represents the large diameter of the tumor, and 'd' represents the small diameter. In some cases, tumor regression and/or percent change in tumor volume was calculated using the formula: Statistical analysis was determined by the rank sum test (SigmaStat, v.2.0, Jandel Scientific, San Francisco, Calif.).

Data set [2] in a line: A549 NSCLC xenograft model, toxicity (body weight, deaths). Particulars: single agent. An excerpt: Female BALB/c nu/nu mice were obtained from Charles River Laboratories (Wilmington, Mass.). The mice were housed in an AALAC approved facility and received standard care in accordance with institutional policy (fully compliant with both NIH and Roche Animal Care and Use Committee guidelines).
Compound II was microprecipitated with an ionic polymer, Eudragit L-100-55, using a solvent extraction method. Eudragit L100-55 (described in USP/NF as “Methacrylic Acid Copolymer”) is an anionic copolymer based on methacrylic acid and ethyl acrylate. The ratio of drug to polymer in the final formulation was 50% w/w Compound II and 50% w/w Eudragit L100-55. For oral administration, the formulated Compound II or pure Eudragit L100-55 (administered to vehicle control groups) was suspended in 0.2% CMC (carboxy-methyl cellulose) solution (Aqualon Hercules, Inc., Parlin, N.J.). The CMC solution was added immediately prior to dosing to animals. Gemzar® (Lilly, Indianapolis, Ind.) was applied to a 40 micron high performance Whatman C-18 column. The column was eluted at 60 ml/min for 50 minutes with water, followed by elution with 40% CH3CN/water until UV clear. The solution was then evaporated and lyophilized.
Weight loss was graphically represented as percent change in mean group body weight, using the formula: […]
where ‘W’ represents mean body weight of the treated group at a particular day, and ‘W0’ represents mean body weight of the same treated group at initiation of treatment.

Data set [3] has as its system H1299 cells. Kind of data set: Tetrazolium dye (MTT) proliferation assay, H1299. It is filed as cell-based. Particulars: Homo sapiens, NCI-H1299; MTT assay using H1299 cells. As to the method: H1299 cells were obtained from the National Cancer Institute. A549 cells were purchased from ATCC. The cells were grown in a subconfluent condition to maintain a logarithmic growth phase. The cells were dislodged for passage using trypsin-EDTA (0.05% and 0.53 mM, respectively).
Cellular proliferation was evaluated by the tetrazolium dye assay. Cells from exponentially growing cultures were plated at the appropriate seeding density in the optimal medium to give logarithmic growth over the course of the assay. Plates were incubated overnight at 37° C. in a humidified CO2 atmosphere to allow for recovery from trypsinization before beginning the assay. […] The plates were returned to 37° C. and assayed for proliferation by MTT (3-(4,5-dimethyl-thiazole-2-yl)-2,5-diphenyl-2H-tetrazolium bromide at time points that would allow for at least three population doublings in the untreated control cultures. MTT was added to each well to yield a final concentration of 1 mg/ml and the plates were returned to 37° C. for 2.5 hours. Following incubation, the MTT-containing medium was removed by aspiration and the resulting formazan metabolite was solubilized in 50 μl ethanol. Absorbances were read at a wavelength of 570 nm with a 650 nm reference. Percent inhibition was calculated using the formula: [formula]

For `Cn1cc(C2=C(c3cn(C)c4cc([N+](=O)[O-])ccc34)C(=O)NC2=O)c2ccccc21` [Compound II], the “Tumor Volume (Mean ± SEM) (Day 30)” value in data set [1] (CII 50 mg/kg PO) was found to be 104 ± 18 mm3; in data set [1] (CII 100 mg/kg PO), 148 ± 28 mm3; in data set [1] (CII 200 mg/kg PO), 99 ± 17 mm3. For the same compound, the “% T/C (Day 47)” value in data set [1] (CII 50 mg/kg PO) is 50%; in data set [1] (CII 100 mg/kg PO), 29%; in data set [1] (CII 200 mg/kg PO), 18%. Further, the “Tumor Volume (Mean ± SEM) (Day 47)” value in data set [1] (CII 50 mg/kg PO) amounted to 217 ± 32 mm3; in data set [1] (CII 100 mg/kg PO) it was 213 ± 35 mm3; in data set [1] (CII 200 mg/kg PO) it was 141 ± 21 mm3. The “Drug Related Deaths” value in data set [2] (CII 50 mg/kg PO), in data set [2] (CII 100 mg/kg PO) and in data set [2] (CII 200 mg/kg PO) was 0% in each case.
Take `Nc1ccn([C@@H]2O[C@H](CO)[C@@H](O)C2(F)F)c(=O)n1` [Gemcitabine, gemcitabine]: the IC50 in data set [3] worked out at 3.8 nM. Moreover, in data set [3], the IC90 was found to be 6 nM. Further, the “Tumor Volume (Mean ± SEM) (Day 30)” value in data set [1] (G 30 mg/kg IP) turned out to be 97 ± 15 mm3; in data set [1] (G 60 mg/kg IP) it was 111 ± 17 mm3; in data set [1] (G 120 mg/kg IP) it was 98 ± 20 mm3. Also, the “% T/C (Day 47)” value in data set [1] (G 30 mg/kg IP) is 72%; in data set [1] (G 60 mg/kg IP), 49%; in data set [1] (G 120 mg/kg IP), 61%. The entries for the “Tumor Volume (Mean ± SEM) (Day 47)” value in data set [1] (G 30 mg/kg IP), in data set [1] (G 60 mg/kg IP) and in data set [1] (G 120 mg/kg IP) were 210 ± 44 mm3, 188 ± 27 mm3 and 193 ± 36 mm3, respectively. For the same compound, the “Drug Related Deaths” value in data set [2] (G 30 mg/kg IP), in data set [2] (G 60 mg/kg IP) and in data set [2] (G 120 mg/kg IP) was 0% each time.

(Values after US20030139373A1, “Method for cancer therapy” (priority 2001, published 2003).)
